Laboratory results as given in patent US8598132B2, “Glycosylated indolocarbazoles, method for obtaining same and uses thereof” (Universidad de Oviedo, priority 2008, dated 2013).

Columns and labels:
Assay type in all cases: biochemical
[1] = target: T1, Erk2 (Homo sapiens, UniProt P28482); test: LabChip (Caliper) kinase assay, Erk2; details: read-out: remaining kinase activity (in %) / percentage of inhibition; for inhibition at 0.01 µM: compound at 10 nM; for inhibition at 0.1 µM: compound at 100 nM
T1 construct: purchased Carna Biosciences
Experimental: (§1) The analysis of kinase activity described here was performed using LabChip (Caliper Life Sciences), specifically the Caliper LC3000 and the EZ Reader II instruments.
(§2) The kinase assay used measures the conversion of a fluorescent peptide (substrate) to a phosphorylated product. The reaction mixture, in a microplate well, is introduced by a capillary in a chip where the non-phosphorylated substrate and the phosphorylated product are separated by […]. The intensity of the fluorescent signal over time is related to the reaction progress. The phosphorylated product migrates quicker than the non-phosphorylated substrate and the signals of the two forms of the peptide appear as differentiated peaks. The Caliper determines the peak height and calculates the ratio of product to the peak sum (P/(P+S)). This value is used to compare wells with compounds and wells with controls and thus determine the % of inhibition for the given product.
(§3) The followings kinases were used for the enzymatic inhibition studies, between brackets the value of the Michaelis-Menten constant, Km, of the ATP (Adenosine triphosphate) for each kinase, in μM: obtained from Carna Biosciences: MAPKAPK2 (4.6), AurA (3.6), AurB (5), PKCζ (3.8), RSK1 (23.3), PRAK (5), Erk1 (33.4), PKD2 (32.1), CK1d (16.3), CHK1 (33), ABL (61.7), FYN (36), LYNa (17), CHK2 (57.8), MET (79.5), LCK (28.5), SRC (38), GSK3β (7.3), Erk2 (62.1), PKACα (1.7), AKT2 (186.1), INSR (871.8), p38a (396.5), AKT1(48), MSK1 (21.2), PKCβ2 (84.8), ROCK2 (3.3), PIM2 (4.9), AMPK (38.6), KDR (164.8), IRAK4 (196.5), SGK1 (121.8), SYK (33.5); obtained from Invitrogen: CDK2 (57.6), BTK (123), HGK (80); obtained from Upstate: MST2 (36.6), PKGα (16), PAK2 (1.9), IGF1R (320), FGFR1 (171), MARK1 (33), CAMK2δ (22.4), c-TAK1 (66), DYRK1a (18.1), CaMK4 (3.9), FLT3 (350), c-Raf (6.2), P70S6K (95).
(§4) The compounds were dissolved in 100% DMSO and were diluted at 25 times the final concentration desired for the assay. In the case of the determination of Cl50, serial dilutions were made to reach eight concentrations and give rise to the inhibition curve. 1 μL of each concentration is transferred, in duplicate to a 384-well microplate. 12 μL of enzymatic buffer is added to each well containing purified kinase (several suppliers as indicated above), 100 mM HEPES, pH 7.5, 1 mM DTT (Calbiochem), 0.002% Brij-35 (Sigma) and also in presence of 10 mM MgCl2 as cofactor, except for INSR and IRAK4 wherein 10 mM MnCl2 is used instead of MgCl2. For the kinases CAMK26 and CAMK4, 1 mM CaCl2 and 6.7 μg/mL of calmodulin are also added. For KDR kinase, 0.05% of the CHAPSO detergent is added. For the c-Raf kinase, 10 mM MnCl2 is added. For PKCβ2 0.02 μg/mL of PS/PMA is added. For PKGα se 10 μM of cGMP (cyclic guanosine monophosphate) is added. The compound and the enzyme are left for 15 minutes preincubation and, then, the following are added to each well: 12 μL of peptide buffer/ATP containing 100 mM HEPES, pH 7.5, 1.5 μM peptide marker with fluorescein (specific for the corresponding kinase), ATP (at concentration KM), and 0.002% Brij-35 to start the reaction. Generally, the reactions are incubated for 1-1.5 h at ambient temperature to obtain an adequate conversion (15-40%) of the peptide to the phosphorylated product. The reactions were ended by the addition of 45 μL of buffer containing 0 mM EDTA. The microplates were read by the LabChip 3000 using a 12-channel LabChip. The P/(P+S) values were obtained as described above and the CI50 curves were generated using XIfit. […]

[2] = target: T2, RSK1 (Homo sapiens, UniProt Q15418); test: LabChip (Caliper) kinase assay, RSK1; details: read-out: remaining kinase activity (in %) / percentage of inhibition; for inhibition at 0.01 µM: compound at 10 nM; for inhibition at 0.1 µM: compound at 100 nM
T2 construct: purchased Carna Biosciences
Experimental: as §1, §2, §3, §4

[3] = target: T3, AurB (Homo sapiens, UniProt Q96GD4); test: LabChip (Caliper) kinase assay, AurB; details: ATP at Km, read-out: CI50 (the source's name)
T3 construct: purchased Carna Biosciences
Experimental: as §1
as §2, with “given product. […]” for “given product.”
The compounds were dissolved in 100% DMSO and were diluted at 25 times the final concentration desired for the assay. […] The microplates were read by the LabChip 3000 using a 12-channel LabChip. […]

T2 sequence (Q15418 whole entry): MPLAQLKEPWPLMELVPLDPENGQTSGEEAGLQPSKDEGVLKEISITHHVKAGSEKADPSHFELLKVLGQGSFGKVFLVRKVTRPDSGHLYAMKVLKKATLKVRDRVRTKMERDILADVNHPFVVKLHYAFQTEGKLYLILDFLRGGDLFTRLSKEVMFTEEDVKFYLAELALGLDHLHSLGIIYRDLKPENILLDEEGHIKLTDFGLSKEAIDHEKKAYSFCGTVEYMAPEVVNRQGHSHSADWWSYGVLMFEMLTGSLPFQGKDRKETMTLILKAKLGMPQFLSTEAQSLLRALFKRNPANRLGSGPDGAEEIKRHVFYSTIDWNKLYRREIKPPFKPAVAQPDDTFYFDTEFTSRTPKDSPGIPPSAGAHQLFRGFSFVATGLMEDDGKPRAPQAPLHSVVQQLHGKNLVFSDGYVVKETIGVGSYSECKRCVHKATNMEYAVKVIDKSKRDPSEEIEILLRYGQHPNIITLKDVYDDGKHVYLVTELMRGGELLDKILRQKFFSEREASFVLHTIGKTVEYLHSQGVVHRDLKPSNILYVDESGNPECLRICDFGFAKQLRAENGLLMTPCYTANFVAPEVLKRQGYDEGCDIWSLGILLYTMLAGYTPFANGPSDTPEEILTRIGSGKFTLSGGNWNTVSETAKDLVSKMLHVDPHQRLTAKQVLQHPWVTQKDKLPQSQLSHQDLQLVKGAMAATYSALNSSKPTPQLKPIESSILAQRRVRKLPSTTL
T1 sequence (P28482 whole entry): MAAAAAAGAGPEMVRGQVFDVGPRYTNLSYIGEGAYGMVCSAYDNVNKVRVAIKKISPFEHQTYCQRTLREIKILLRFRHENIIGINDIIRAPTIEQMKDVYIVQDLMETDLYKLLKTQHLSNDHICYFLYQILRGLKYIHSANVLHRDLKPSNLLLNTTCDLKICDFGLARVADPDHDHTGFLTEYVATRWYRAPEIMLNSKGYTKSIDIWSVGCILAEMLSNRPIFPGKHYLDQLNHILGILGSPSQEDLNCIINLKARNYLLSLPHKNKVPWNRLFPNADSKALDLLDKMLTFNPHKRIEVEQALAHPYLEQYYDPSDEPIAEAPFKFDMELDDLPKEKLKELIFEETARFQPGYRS
T3 sequence (Q96GD4 whole entry): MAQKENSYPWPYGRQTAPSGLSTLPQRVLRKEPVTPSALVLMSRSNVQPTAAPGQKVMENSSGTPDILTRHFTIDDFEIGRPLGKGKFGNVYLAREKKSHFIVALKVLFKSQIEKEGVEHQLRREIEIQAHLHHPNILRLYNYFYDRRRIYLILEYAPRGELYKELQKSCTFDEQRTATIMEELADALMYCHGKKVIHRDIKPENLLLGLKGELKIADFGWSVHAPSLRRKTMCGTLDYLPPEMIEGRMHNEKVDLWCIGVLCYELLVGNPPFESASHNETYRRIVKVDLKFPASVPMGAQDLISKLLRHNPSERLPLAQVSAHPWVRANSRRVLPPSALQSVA
T3 sequence (Q9NQS7 803-918 partner limits assumed): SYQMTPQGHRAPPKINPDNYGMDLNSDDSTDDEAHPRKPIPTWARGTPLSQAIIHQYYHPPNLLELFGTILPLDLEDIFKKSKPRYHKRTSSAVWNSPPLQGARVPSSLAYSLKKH

C[C@@H]1O[C@@H](n2c3ccccc3c3c4c(c5c6ccccc6[nH]c5c32)C(=O)NC4=O)[C@H](O)[C@H](O)[C@H]1O [formula (III), N^13-1′-β-L-rhamnosylarcyriaflavin]
inhibition at 0.01 µM [1]: -6% | inhibition at 0.1 µM [1]: -4% | inhibition at 0.01 µM [2]: 2% | inhibition at 0.1 µM [2]: 20%

C[C@@H]1O[C@@H](n2c3ccccc3c3c4c(c5c6ccccc6[nH]c5c32)C(=O)NC4=O)C[C@H](O)[C@H]1O [formula (IV), N^13-1′-β-L-olivosylarcyriaflavin]
inhibition at 0.01 µM [1]: -2% | inhibition at 0.1 µM [1]: -3% | inhibition at 0.01 µM [2]: 14% | inhibition at 0.1 µM [2]: 77%

C[C@]12O[C@H](C[C@@H](O)[C@H]1O)n1c3ccccc3c3c4c(c5c6ccccc6n2c5c31)C(=O)NC4=O [formula (IX), N^12-5′(S)-N^13-1′-(R)-L-digitoxosylarcyriaflavin]
IC50 [3]: 4.5 nM

C[C@@H]1O[C@@H](n2c3ccccc3c3c4c(c5c6ccccc6[nH]c5c32)C(=O)NC4=O)C[C@@H](O)[C@H]1O [formula (V), N^13-1′-β-L-digitoxosylarcyriaflavin]
inhibition at 0.01 µM [1]: -4% | inhibition at 0.1 µM [1]: 0% | inhibition at 0.01 µM [2]: 38% | inhibition at 0.1 µM [2]: 77%

C[C@H]1O[C@@H](n2c3ccccc3c3c4c(c5c6ccccc6[nH]c5c32)C(=O)NC4=O)C[C@@H](O)[C@@H]1O [formula (VI), N^13-1′-β-D-olivosylarcyriaflavin]
inhibition at 0.01 µM [1]: -1% | inhibition at 0.1 µM [1]: 30% | inhibition at 0.01 µM [2]: 31% | inhibition at 0.1 µM [2]: 74%

C[C@@H]1O[C@@H](n2c3ccccc3c3c4c(c5c6ccccc6[nH]c5c32)CNC4=O)[C@H](O)[C@H](O)[C@H]1O [formula (XII), N^13-1′-β-L-rhamnosyl-k252c]
inhibition at 0.01 µM [1]: -3% | inhibition at 0.1 µM [1]: -1% | inhibition at 0.01 µM [2]: -4% | inhibition at 0.1 µM [2]: 7%

C[C@@H]1O[C@@H](n2c3ccccc3c3c4c(c5c6ccccc6[nH]c5c32)CNC4=O)C[C@H](O)[C@H]1O [formula (XIII), N^13-1′-β-L-olivosyl-k252c]
inhibition at 0.01 µM [1]: -4% | inhibition at 0.1 µM [1]: 3% | inhibition at 0.01 µM [2]: 7% | inhibition at 0.1 µM [2]: 56%

C[C@@H]1O[C@@H](n2c3ccccc3c3c4c(c5c6ccccc6[nH]c5c32)CNC4=O)C[C@@H](O)[C@H]1O [formula (XIV), N^13-1′-β-L-digitoxosyl-k252c]
inhibition at 0.01 µM [1]: -4% | inhibition at 0.1 µM [1]: 0% | inhibition at 0.01 µM [2]: -1% | inhibition at 0.1 µM [2]: 22%

C[C@H]1O[C@@H](n2c3ccccc3c3c4c(c5c6ccccc6[nH]c5c32)CNC4=O)C[C@@H](O)[C@@H]1O [formula (XV), N^13-1′-β-D-olivosyl-k252c]
inhibition at 0.01 µM [1]: -4% | inhibition at 0.1 µM [1]: -2% | inhibition at 0.01 µM [2]: -1% | inhibition at 0.1 µM [2]: 31%

C[C@]12O[C@H](C[C@H](O)[C@H]1O)n1c3ccccc3c3c4c(c5c6ccccc6n2c5c31)CNC4=O [formula (XVII), N^12-5′(S)-N^13-1′-(R)-L-olivosyl-k252c]
IC50 [3]: 6.8 nM
